# Laboratory results reported in PMC7576608, “Mechanisms of telomerase inhibition by oxidized and therapeutic dNTPs” (Nature Communications, 2020).
# What was measured:
# telomerase [1] = target: telomerase (Homo sapiens, UniProt O14746); assay: Telomerase extension of 32P-end labeled primers with a single dNTP (percent primer extension); assay type: biochemical; set-up: made in house; anti-FLAG immunopurification, eluted with 3xFLAG peptide; conditions: for Percent Primer Extension: 50 μM single dNTP
# Chain of telomerase (Homo sapiens, UniProt O14746) (O14746 whole entry): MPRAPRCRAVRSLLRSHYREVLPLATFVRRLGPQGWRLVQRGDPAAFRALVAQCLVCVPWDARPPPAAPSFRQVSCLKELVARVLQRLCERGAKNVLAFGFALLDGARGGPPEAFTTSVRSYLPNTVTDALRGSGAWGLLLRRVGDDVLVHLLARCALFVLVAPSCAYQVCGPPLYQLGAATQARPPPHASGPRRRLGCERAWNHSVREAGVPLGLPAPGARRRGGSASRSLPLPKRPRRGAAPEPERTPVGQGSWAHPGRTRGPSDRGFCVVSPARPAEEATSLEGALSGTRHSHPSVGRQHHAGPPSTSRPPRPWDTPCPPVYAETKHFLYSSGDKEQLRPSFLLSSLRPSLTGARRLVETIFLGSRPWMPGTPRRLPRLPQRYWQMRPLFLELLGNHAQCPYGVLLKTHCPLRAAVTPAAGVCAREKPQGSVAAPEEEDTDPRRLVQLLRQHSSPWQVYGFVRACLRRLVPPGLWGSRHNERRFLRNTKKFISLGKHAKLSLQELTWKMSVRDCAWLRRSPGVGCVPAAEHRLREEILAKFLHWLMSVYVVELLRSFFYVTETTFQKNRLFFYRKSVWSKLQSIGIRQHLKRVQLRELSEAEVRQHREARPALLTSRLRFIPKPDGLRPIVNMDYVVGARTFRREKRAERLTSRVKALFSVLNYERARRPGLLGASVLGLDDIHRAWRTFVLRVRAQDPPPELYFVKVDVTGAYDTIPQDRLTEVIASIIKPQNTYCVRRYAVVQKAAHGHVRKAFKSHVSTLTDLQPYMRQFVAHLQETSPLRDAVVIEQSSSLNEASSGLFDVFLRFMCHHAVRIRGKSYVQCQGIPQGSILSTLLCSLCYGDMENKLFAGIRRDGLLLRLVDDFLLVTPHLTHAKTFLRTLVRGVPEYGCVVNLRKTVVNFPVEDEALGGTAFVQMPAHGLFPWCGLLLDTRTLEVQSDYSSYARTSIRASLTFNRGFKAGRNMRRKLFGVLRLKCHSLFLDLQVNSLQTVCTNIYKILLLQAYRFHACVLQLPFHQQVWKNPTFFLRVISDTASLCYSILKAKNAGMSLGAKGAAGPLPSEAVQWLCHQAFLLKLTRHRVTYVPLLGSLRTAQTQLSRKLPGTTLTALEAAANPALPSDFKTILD
# Description: A chain terminating mechanism of inhibition requires that the enzyme adds the modified dNTP to a growing chain, which then blocks further synthesis. […] To test whether telomerase can incorporate other modified dNTPs, and whether the incorporation is chain terminating and/or mutagenic, we conducted direct extension assays in which we radiolabeled the primer and added increasing concentrations (5, 50, and 500 μM) of a single dNTP (Supplementary Figs. 3, 5, 6, and 7). Since modified dNTPs may prefer mispairing, we tested various primers in which the first template base was either rA3, rC1, or rU5 (primer 1, primer 2, and primer 3, respectively), and compared the percent primer extension for each dNTP at the middle 50 μM concentration (Fig. 3). Primers 1 and 2 initiate synthesis at consecutive rA3rA4 or rC1rC2 template bases, respectively, so we could examine both incorporation and extension to the next base. However, the telomerase template lacks tandem rU residues.
# Fig. 3 Telomerase insertion of modified dNTPs. Telomerase reactions were conducted with 5 nM ^32P-end labeled primer a Primer 1 (TTAGGG)3, b Primer 2 (GGTTAG)3, or c Primer 3 (AGGGTT)3. Reactions contained cellular-concentration dNTPs (lane 1) or 50 μM of indicated natural dNTP (blue, lanes 2–5), oxidized dNTP (red, lanes 6–8), or therapeutic dNTP (green, lanes 9–11). Products were separated on denaturing gels. […] Letters on the right indicate the template base; P indicates unextended 18-mer primer. Graphs represent the percent of total primers extended. Images are representative of, and data are shown as mean ± s.d. from, three independent experiments. Source data are provided as a Source Data file.
# (§1) An equal volume of loading buffer (94% formamide, 0.1× TBE, 0.1% bromophenol blue, 0.1% xylene cyanol) was added to the reaction eluent. The samples were heat denatured for 10 min at 100 °C and loaded onto a 14% denaturing acrylamide gel (7 M urea, 1× TBE) and electrophoresed for 90 min at constant 38 W. Samples were imaged using a Typhoon phosphorimager (GE Healthcare). Percent primer extension was calculated with ImageQuant TL 8.2 by measuring the intensity of each product band and dividing by the total radioactivity in the lane or total products, as indicated in the figure legends.
# Telomerase reactions were conducted with 5 nM 32P-end labeled primer (a) Primer 1 (TTAGGG)3, (b) Primer 2 (GGTTAG)3, or (c and d) Primer 3 […]
# (d) reactions contained 3 µg/µl RNase A. Products were separated on denaturing gels. Letters on the right indicate the template base; P indicates unextended 18-mer primer. Graphs represent the percent of total primers extended for the reactions in panels a – c from one experiment. Panel d is a representative image from three independent experiments. Source data are provided as a Source Data file. […]
# Supplementary Fig 4. Time course reactions with telomerase or pol β. (a, b) Telomerase reactions were conducted with 5 nM 32P-end labeled primer (a) Primer 4 (GTTAGG)3 or (b) Primer 2 (GGTTAG)3.
# Products were separated on denaturing gels. Letters on the right indicate the template base; P indicates […]
# unextended 18-mer primer. […]
# telomerase [2] = assay: Direct telomerase assay in the absence or presence of POT1-TPP1 (processivity R1/2); assay type: biochemical, human; conditions: analog substituted for its natural dNTP
# Source text: Next we tested whether the telomerase processivity factor POT1–TPP1 modulates modified dNTP inhibition of telomerase. POT1 binds to the telomeric ssDNA overhang, requiring the minimum sequence of 5′-[…]-3′[38]. Inclusion of POT1-binding partner TPP1, increases the binding affinity for telomeric DNA ten-fold compared to POT1 alone. POT1–TPP1 recruits telomerase to telomeres in vivo[39], and greatly increases telomerase repeat processivity. Therefore, we reasoned that POT1–TPP1 may overcome inhibition by the modified dNTPs and enhance telomerase processivity. We conducted telomerase extension reactions with radiolabeled primer in the presence of POT1–TPP1, and used a primer with a single mutation ([…]; underlined G to C mutation)[40] to ensure POT1–TPP1 is positioned at the 5′ portion of the primer (Fig. 5). This provides a homogenous substrate for telomerase extension.
# For these reactions, we replaced the natural dNTP with the modified dNTP analog, while the other dNTPs remained at cellular relevant concentrations.
# Direct telomerase assays were conducted in the absence or presence of 500 nM POT1 and 500 nM TPP1, as indicated, and 5 nM ^32P-end labeled primer ([…]) designed to position POT1 at the 10 nt primer 5′ end. Reactions contained cellular-concentration dNTPs (lanes 1 and 2), except when the natural dNTP was substituted with the oxidized dNTP a or therapeutic dNTP b analog (lanes 3–8), as indicated. […] Letters on the right indicate template base; P indicates unextended 18-mer primer. c Processivity was calculated on the basis of total products normalized to loading control. Images are representative of, and data are shown as mean ± s.d. from 3 to 5 independent experiments. Source data are provided as a Source Data file.
# as §1, with “The reactions were started by the addition of 3 μl of immunopurified telomerase eluent, incubated at 37 °C for 1 h, then terminated with 2 μl of […] and heat inactivated at 65 °C for 20 min. An” for “An”
# The processivity was calculated as described[40],[67]. Repeat processivity from the direct telomerase extension assays was calculated as R1/2 (equivalent to the half-time for decay in an exponential time course), which represents the median length of DNA product formed, expressed in terms of number of telomere repeats. First, the total volume counts for each product band extend by one or more telomere repeats were obtained using Image Quant TL. The volume counts were then normalized by dividing by the number of radiolabeled guanosines incorporated into the extended products based on the number of repeats added, termed corrected volume (corr vol). The “percent left behind” (%LB) was calculated for each product band by summing the counts for that product band and for every product band below (shorter products), divided by the total counts for the lane, and then multiplied by 100. The natural log of (100−%LB) was calculated and then plotted vs. repeat number for each product length. A linear regression line was fit to the data to determine the slope of the line.
# [3] = Primer 1 (TTAGGG)3, first template base rA3, Mean of three experiments
# [4] = Primer 2 (GGTTAG)3, first template base rC1, Mean of three experiments
# [5] = Primer 2 (GGTTAG)3, first template base rC1, single experiments n1-n3
# [6] = Primer 3 (AGGGTT)3, first template base rU5, Mean of three experiments
# [7] = Primer 3 (AGGGTT)3, first template base rU5, single experiments n1-n3
# [8] = end-labeled primers, single dNTP
SMILES,Percent Primer Extension (telomerase [1]; [3]),"% Primer Extension (telomerase [1]; Primer 1, 5µM dNTP)","% Primer Extension (telomerase [1]; Primer 1, 50µM dNTP)","% Primer Extension (telomerase [1]; Primer 1, 500µM dNTP)",Percent Primer Extension (telomerase [1]; [4]),Percent Primer Extension (telomerase [1]; [5]),"% Primer Extension (telomerase [1]; Primer 2, 5µM dNTP)","% Primer Extension (telomerase [1]; Primer 2, 50µM dNTP)","% Primer Extension (telomerase [1]; Primer 2, 500µM dNTP)","% Primer Extension (telomerase [1]; Primer 3, 5µM dNTP)","% Primer Extension (telomerase [1]; Primer 3, 50µM dNTP)","% Primer Extension (telomerase [1]; Primer 3, 500µM dNTP)",Percent Primer Extension (telomerase [1]; [6]),Percent Primer Extension (telomerase [1]; [7]),Quality as telomerase substrate (in words) (telomerase [1]; [8]),Effect of POT1-TPP1 on telomerase in presence of analog (in words) (telomerase [2]),Chain termination after telomerase insertion (in words) (telomerase [1]; [8])
Nc1ncnc2c1ncn2C1CC(O)C(COP(=O)(O)OP(=O)(O)OP(=O)(O)O)O1 (stereo not drawn) [dATP],3.48%,0.00%,1.84%,3.63%,0.00%,0.00%,0.00%,0.00%,2.50%,11.52%,14.88%,23.85%,–,–,–,–,–
Nc1ncnc2c1[nH]c(=O)n2C1CC(O)C(COP(=O)(O)OP(=O)(O)OP(=O)(O)O)O1 (stereo not drawn) [8-oxo-dATP],0.53%,0.00%,0.00%,1.79%,0.00%,0.00%,0.00%,0.00%,0.00%,0.00%,0.00%,0.00%,0.00%,0.00%,very poor substrate for telomerase,some POT1–TPP1 stimulation,–
O=c1[nH]cnc2c1ncn2C1CCC(COP(=O)(O)OP(=O)(O)OP(=O)(O)O)O1 (stereo not drawn) [ddITP],1.59%,3.46%,4.29%,6.73%,–,–,0%,4.27%,5.45%,0%,0%,0%,0.00%,0.00%,–,failed to stimulate telomerase processivity,genuine telomerase chain terminators
